According to ChEMBL document CHEMBL3870361, “Discovery of Novel Seven-Membered Prostacyclin Analogues as Potent and Selective Prostaglandin FP and EP3 Dual Agonists” (ACS Med Chem Lett, 2017):
pEC50: −log10 of the molar value.

Experiments:
[1] = target: Prostaglandin F2-alpha receptor (Homo sapiens, UniProt P43088); experiment: Agonist activity at human prostaglandin FP receptor expressed in CHO cells assessed as increase in intracellular calcium level by Fura 2-AM dye based fluorescence assay; format: functional, cell-based
Prostacyclin receptor = Prostacyclin receptor (Homo sapiens, UniProt P43119); experiment: Agonist activity at human IP receptor expressed in CHO cells assessed as increase in intracellular cAMP level by HTRF method; format: cell-based
[2] = target: T1, Prostaglandin E2 receptor EP3 subtype (Homo sapiens, UniProt P43115); experiment: Agonist activity at human EP3 receptor expressed in CHO cells assessed as increase in intracellular calcium level by Fura 2-AM dye based fluorescence assay; format: functional, cell-based
T1 sequence (P43115 whole entry): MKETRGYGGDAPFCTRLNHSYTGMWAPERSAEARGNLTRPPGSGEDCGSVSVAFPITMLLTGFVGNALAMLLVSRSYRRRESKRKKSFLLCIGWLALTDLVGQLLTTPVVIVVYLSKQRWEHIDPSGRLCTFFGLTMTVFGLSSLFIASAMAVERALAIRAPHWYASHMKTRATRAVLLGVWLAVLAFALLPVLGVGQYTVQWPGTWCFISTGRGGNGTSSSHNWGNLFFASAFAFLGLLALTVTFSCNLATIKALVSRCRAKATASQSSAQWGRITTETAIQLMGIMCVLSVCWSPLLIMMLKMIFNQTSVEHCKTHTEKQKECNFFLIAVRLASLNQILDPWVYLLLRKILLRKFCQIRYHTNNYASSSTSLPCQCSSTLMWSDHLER

[3] = target: Prostaglandin E2 receptor EP4 subtype (Homo sapiens, UniProt P35408); experiment: Agonist activity at EP4 receptor (unknown origin)
[4] = target: Prostaglandin E2 receptor EP2 subtype (Homo sapiens, UniProt P43116); experiment: Agonist activity at EP2 receptor (unknown origin)
Prostaglandin E2 receptor EP2 subtype, sequence (P43116 whole entry): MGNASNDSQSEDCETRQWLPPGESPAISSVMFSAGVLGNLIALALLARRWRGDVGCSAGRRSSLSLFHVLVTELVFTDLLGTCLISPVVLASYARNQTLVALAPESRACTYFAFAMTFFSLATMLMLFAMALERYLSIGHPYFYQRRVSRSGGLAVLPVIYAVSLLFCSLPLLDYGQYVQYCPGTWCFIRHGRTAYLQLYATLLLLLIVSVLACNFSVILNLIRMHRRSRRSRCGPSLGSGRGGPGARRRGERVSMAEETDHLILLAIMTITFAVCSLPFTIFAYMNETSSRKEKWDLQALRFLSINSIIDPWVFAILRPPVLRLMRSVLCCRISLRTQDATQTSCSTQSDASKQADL

Prostacyclin receptor, sequence (P43119 whole entry): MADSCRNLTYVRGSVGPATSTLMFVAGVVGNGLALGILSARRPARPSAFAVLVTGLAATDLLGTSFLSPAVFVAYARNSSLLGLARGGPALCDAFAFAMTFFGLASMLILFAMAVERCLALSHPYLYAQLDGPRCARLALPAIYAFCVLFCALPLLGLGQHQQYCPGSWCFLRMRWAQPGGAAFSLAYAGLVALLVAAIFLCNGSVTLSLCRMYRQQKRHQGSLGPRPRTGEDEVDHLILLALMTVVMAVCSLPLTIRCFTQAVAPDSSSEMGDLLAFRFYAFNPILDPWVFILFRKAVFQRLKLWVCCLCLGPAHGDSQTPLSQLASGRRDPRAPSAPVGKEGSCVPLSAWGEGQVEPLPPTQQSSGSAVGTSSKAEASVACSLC
Prostaglandin F2-alpha receptor, sequence (P43088 whole entry): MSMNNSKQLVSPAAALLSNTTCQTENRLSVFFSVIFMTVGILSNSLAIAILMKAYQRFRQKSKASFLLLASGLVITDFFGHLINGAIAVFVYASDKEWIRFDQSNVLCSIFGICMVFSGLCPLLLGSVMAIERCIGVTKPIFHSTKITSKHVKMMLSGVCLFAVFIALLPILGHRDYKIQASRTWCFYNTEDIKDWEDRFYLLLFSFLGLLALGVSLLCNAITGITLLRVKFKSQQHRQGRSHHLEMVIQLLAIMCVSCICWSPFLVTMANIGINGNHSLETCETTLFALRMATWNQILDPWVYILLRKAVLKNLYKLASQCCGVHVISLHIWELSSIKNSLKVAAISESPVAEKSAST
Prostaglandin E2 receptor EP4 subtype, sequence (P35408 whole entry): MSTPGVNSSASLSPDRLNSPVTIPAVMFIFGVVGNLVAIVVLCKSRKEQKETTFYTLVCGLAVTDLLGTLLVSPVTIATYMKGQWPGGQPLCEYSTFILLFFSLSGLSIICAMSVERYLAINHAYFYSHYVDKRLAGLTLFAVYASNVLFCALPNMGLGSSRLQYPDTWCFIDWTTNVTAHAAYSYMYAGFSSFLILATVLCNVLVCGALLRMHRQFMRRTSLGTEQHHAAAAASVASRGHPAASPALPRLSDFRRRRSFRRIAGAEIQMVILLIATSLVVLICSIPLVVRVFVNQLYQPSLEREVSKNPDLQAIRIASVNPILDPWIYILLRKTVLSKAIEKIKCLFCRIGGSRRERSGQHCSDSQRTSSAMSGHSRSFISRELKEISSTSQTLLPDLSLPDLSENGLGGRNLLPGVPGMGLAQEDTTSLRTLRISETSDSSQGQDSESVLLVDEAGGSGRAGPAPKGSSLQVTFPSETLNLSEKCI

SMILES | pEC50 [1] | pEC50 (Prostacyclin receptor) | pEC50 [2] | pEC50 [3] | pEC50 [4]
O=C(O)CCCC1=CC[C@@H]2[C@@H](/C=C/[C@@H](O)COc3ccccc3)[C@H](O)C[C@@H]2OC1 | 6.19 | < 5.00 | 5.33 |  | 
O=C(O)CCC/C=C\C[C@H]1C(=O)C[C@@H](O)[C@@H]1/C=C/[C@@H](O)COc1ccccc1 | 7.80 |  | 9.05 |  | 
O=C(O)CC[C@H]1CC[C@@H]2[C@@H](/C=C/[C@@H](O)COc3ccccc3)[C@H](O)C[C@@H]2OC1 | 6.96 | < 5.00 | 5.32 |  | 
O=C(O)CCCCC1=CC[C@@H]2[C@@H](/C=C/[C@@H](O)COc3ccccc3)[C@H](O)C[C@@H]2OC1 | 7.14 | < 5.00 | 7.89 |  | 
O=C(O)CCCC[C@H]1CC[C@@H]2[C@@H](/C=C/[C@@H](O)COc3ccccc3)[C@H](O)C[C@@H]2OC1 | 7.37 | < 5.00 | 6.27 |  | 
O=C(O)CCCCCC1=CC[C@@H]2[C@@H](/C=C/[C@@H](O)COc3ccccc3)[C@H](O)C[C@@H]2OC1 | 6.06 | < 5.00 | 5.19 |  | 
O=C(O)CCCC[C@@H]1CC[C@@H]2[C@@H](/C=C/[C@@H](O)COc3ccccc3)[C@H](O)C[C@@H]2OC1 | 6.96 | < 5.00 | 6.89 |  | 
O=C(O)CCC[C@@H]1CC[C@@H]2[C@@H](/C=C/[C@@H](O)COc3ccccc3)[C@H](O)C[C@@H]2OC1 | 6.55 | < 5.00 | 8.64 |  | 
O=C(O)CCC1=CC[C@@H]2[C@@H](/C=C/[C@@H](O)COc3ccccc3)[C@H](O)C[C@@H]2OC1 | 6.28 | < 5.00 | 5.57 |  | 
O=C(O)CCC/C=C\C[C@@H]1[C@@H](/C=C/[C@@H](O)COc2cccc(C(F)(F)F)c2)[C@H](O)C[C@@H]1O [FLUPROSTENOL] | 8.44 | < 5.00 | 5.47 |  | 
O=C(O)CCC[C@H]1CC[C@@H]2[C@@H](/C=C/[C@@H](O)COc3ccccc3)[C@H](O)C[C@@H]2OC1 | 7.55 | < 5.00 | 8.40 | < 5.00 | < 5.00

Continued, values first:

pEC50 [1] | pEC50 (Prostacyclin receptor) | pEC50 [2] | pEC50 [3] | pEC50 [4] | SMILES
8.42 | 5.70 | 7.57 |  |  | O=C(O)CC[C@@H]1CCC[C@@H]2[C@@H](/C=C/[C@@H](O)COc3ccccc3)[C@H](O)C[C@@H]2O1
7.66 | < 5.00 | 7.74 |  |  | O=C(O)CC[C@H]1CCC[C@@H]2[C@@H](/C=C/[C@@H](O)COc3ccccc3)[C@H](O)C[C@@H]2O1
8.15 |  | 8.44 |  |  | O=C(O)CCC[C@H]1CC[C@@H]2[C@@H](/C=C/[C@@H](O)COc3ccccc3)[C@H](O)C[C@@H]2O1
8.39 | 7.59 | 8.39 |  |  | O=C(O)CCC[C@@H]1CC[C@@H]2[C@@H](/C=C/[C@@H](O)COc3ccccc3)[C@H](O)C[C@@H]2O1
6.00 | < 5.00 | 6.06 |  |  | O=C(O)CC[C@@H]1CC[C@@H]2[C@@H](/C=C/[C@@H](O)COc3ccccc3)[C@H](O)C[C@@H]2OC1
